Experiments:
[1] = biological target: T1, Dual specificity mitogen-activated protein kinase kinase 7 (Homo sapiens) (UniProt O14733); assay: Selectivity interaction (KinomeScan (DiscoverX)) EUB0001079a MAP2K7; details: at 1 µM
T1 sequence (whole entry): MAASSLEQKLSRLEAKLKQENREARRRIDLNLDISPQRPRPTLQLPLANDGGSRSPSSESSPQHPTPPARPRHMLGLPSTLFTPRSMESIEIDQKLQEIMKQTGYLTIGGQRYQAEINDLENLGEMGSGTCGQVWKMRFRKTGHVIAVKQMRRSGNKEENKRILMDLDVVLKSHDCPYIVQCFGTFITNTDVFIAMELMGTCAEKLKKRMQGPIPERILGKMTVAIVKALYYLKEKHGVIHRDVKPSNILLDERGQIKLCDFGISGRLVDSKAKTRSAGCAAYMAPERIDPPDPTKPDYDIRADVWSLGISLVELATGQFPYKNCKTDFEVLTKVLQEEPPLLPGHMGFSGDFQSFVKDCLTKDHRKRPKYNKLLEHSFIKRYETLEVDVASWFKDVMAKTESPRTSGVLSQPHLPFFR

[2] = biological target: Histone-lysine N-methyltransferase KMT5B (Homo sapiens) (UniProt Q4FZB7); assay: Selectivity interaction (Methyltransferase screen (radiometric assays, panel of 8 PRMTs, 21 protein lysine methyltransferases, 3 DNA methyltransferases, and one RNA methyltransferase)) EUB0000272b SUV420H1
Sequence of Histone-lysine N-methyltransferase KMT5B (Homo sapiens) (Q4FZB7 whole entry, looked up): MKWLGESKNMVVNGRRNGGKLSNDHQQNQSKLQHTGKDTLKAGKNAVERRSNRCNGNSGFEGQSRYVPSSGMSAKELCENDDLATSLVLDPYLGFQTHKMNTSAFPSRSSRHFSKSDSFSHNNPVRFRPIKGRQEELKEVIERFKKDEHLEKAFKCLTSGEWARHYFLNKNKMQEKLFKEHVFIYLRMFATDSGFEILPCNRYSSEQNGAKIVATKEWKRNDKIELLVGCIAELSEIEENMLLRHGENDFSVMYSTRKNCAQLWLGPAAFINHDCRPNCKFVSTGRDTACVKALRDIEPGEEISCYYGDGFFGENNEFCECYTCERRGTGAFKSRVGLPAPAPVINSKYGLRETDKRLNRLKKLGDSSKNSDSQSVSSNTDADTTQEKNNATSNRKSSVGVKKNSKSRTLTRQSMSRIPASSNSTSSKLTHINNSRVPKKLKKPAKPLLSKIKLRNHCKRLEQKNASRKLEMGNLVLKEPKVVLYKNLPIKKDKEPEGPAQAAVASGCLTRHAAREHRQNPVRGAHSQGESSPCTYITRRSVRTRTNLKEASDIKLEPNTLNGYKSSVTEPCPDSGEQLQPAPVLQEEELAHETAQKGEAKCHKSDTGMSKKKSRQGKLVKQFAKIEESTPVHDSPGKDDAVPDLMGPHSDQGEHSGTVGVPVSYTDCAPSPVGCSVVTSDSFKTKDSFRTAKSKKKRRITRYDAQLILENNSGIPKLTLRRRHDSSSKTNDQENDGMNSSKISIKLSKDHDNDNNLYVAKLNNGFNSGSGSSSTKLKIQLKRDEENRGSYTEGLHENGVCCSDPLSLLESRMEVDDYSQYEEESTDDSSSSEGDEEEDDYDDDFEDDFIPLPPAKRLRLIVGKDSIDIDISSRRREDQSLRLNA

[3] = biological target: T2, Tyrosine-protein kinase JAK3 (Homo sapiens) (UniProt P52333); assay: Selectivity interaction (ActivX KiNativ screen (ex vivo kinase selectivity in human PBMCs)) EUB0001619a JAK3; assay type: cell-based; details: PBMC, at 1 µM
T2 sequence (whole entry): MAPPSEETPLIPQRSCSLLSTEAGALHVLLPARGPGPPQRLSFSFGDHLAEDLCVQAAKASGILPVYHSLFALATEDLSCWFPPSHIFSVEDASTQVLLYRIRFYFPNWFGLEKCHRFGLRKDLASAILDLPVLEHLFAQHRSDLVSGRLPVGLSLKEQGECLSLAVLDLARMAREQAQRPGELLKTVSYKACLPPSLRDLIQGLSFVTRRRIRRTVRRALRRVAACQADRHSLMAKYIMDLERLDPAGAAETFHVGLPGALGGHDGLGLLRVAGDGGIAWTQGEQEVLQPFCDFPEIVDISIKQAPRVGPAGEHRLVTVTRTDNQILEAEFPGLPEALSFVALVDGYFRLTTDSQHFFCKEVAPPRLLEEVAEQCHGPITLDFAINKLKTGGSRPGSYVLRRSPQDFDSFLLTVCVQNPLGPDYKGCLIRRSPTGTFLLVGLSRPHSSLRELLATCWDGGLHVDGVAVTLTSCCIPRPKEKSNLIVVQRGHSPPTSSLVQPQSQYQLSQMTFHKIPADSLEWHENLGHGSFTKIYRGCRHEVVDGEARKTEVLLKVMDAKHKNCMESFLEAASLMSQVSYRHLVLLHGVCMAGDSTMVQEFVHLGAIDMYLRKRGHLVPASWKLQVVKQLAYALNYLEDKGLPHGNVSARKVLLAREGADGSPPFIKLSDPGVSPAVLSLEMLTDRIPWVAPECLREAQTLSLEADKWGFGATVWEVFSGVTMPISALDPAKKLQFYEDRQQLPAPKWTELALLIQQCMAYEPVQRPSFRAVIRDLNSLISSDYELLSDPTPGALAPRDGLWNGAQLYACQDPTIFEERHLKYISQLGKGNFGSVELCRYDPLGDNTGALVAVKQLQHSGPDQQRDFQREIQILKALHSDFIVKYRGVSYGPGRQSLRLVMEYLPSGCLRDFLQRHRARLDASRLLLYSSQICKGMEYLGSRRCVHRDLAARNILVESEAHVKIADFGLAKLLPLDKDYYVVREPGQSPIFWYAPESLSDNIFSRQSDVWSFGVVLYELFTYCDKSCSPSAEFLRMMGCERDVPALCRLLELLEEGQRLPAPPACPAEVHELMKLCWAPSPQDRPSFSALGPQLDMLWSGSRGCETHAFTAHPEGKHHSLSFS

[4] = biological target: T3, Dual specificity tyrosine-phosphorylation-regulated kinase 4 (Homo sapiens) (UniProt Q9NR20); assay: Selectivity interaction (SelectScreen profiling (Invitrogen)) EUB0000607a DYRK4; details: at 2 µM
T3 sequence (whole entry): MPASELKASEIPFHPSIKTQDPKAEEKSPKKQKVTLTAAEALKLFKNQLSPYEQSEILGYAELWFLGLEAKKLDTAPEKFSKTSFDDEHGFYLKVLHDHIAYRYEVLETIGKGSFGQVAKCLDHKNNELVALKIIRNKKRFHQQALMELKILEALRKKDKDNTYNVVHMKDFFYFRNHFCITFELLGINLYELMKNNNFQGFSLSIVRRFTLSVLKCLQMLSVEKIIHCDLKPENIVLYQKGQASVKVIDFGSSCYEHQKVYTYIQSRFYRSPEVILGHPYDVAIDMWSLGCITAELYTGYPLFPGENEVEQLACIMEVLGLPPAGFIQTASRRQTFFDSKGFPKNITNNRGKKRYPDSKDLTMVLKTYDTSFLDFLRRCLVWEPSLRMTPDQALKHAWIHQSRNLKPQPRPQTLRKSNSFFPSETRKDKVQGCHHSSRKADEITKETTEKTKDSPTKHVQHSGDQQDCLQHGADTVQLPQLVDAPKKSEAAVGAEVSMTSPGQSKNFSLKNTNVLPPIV

[5] = biological target: Bone morphogenetic protein receptor type-1A (Homo sapiens, UniProt P36894); assay: Selectivity interaction (Ambit KINOMEscan and KiNATiv profiling in Jurkat cells) EUB0000090b BMPR1A; assay type: cell-based; details: at 1 µM
Sequence of Bone morphogenetic protein receptor type-1A (P36894 whole entry): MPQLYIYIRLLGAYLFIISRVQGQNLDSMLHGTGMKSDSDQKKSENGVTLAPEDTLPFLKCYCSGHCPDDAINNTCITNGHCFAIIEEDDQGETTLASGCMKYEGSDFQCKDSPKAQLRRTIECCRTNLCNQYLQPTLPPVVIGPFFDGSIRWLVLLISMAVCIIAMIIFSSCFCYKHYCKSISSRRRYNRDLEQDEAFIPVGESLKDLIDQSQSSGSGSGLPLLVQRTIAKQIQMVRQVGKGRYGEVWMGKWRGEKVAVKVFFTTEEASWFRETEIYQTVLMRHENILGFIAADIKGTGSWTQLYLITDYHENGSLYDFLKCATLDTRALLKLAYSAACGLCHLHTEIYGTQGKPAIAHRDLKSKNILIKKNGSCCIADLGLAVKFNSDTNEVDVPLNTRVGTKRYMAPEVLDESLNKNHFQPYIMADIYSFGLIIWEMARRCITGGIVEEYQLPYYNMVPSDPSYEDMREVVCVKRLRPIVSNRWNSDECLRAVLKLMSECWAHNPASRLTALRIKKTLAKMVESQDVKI

`Nc1cnc(N2CCc3cc(S(=O)(=O)Nc4c(F)cc(Cl)cc4F)cc(N4CCCC4=O)c32)nc1` [TP-020n] was tested, and the % of control [1] was 100%.
`Cc1cc(C)cc([C@H]2c3cc(C)ccc3NC(=O)CN2C(=O)c2ccc(Br)s2)c1` gave a % of activity ([2]; at 1 µM) of 103% and a % of activity ([2]; at 10 µM) of 103%.
With `N#Cc1cccc(-c2c[nH]c3ncnc(N4CCOCC4)c23)c1` the % of inhibition [3] was 7%.
Compound `CNC(=O)Nc1ccc(-c2nc(N3CC4CCC(C3)O4)c3cnn(C4CCC5(CC4)OCCO5)c3n2)cc1` has a % of inhibition [4] of 4%.
Work on `CN(C)C/C=C/C(=O)Nc1ccc(C(=O)N2CCCC(Nc3ncc(Cl)c(-c4c[nH]c5ccccc45)n3)C2)cc1` (stereo unspecified) yielded a % of control [5] of 100%.

From ChEMBL document CHEMBL5465560, “Selectivity Literature for EUbOPEN Chemogenomic Library” (2024)
